Results from US20250382273A1 (INSTITUT NATIONAL DE LA SANTE ET DE LA RECHERCHE MEDICALE, priority 2022, published 2025).

test system: M. tuberculosis H37Rv_DdnL49P_gfp; type: cell-based, Mycobacterium tuberculosis; details: in combination with pretomanid, unit inferred; read-out: average EC50 H37Rv_DdnL49P_gfp

SMILES	EC50 [nM]
O=C(Nc1nc2ccc(Oc3ccc(F)cc3)cc2s1)[C@@H]1C2C=CC(C2)[C@@H]1C(=O)O (stereo partly shown) [Example 21, 3-[[6-(4-fluorophenoxy)-1,3-benzothiazol-2-yl]carbamoyl]bicyclo[2.2.1]hept-5-ene-2-carboxylic acid]	400
O=C1[C@@H]2[C@H](C(=O)N1c1nc3ccc(Oc4ccc(C(F)(F)F)cn4)cc3s1)[C@@H]1C=C[C@H]2C1 [Example 36, (1R,2S,6R,7S)-4-[6-[[5-(trifluoromethyl)-2-pyridyl]oxy]-1,3-benzothiazol-2-yl]-4-azatricyclo[5.2.1.02,6]dec-8-ene-3,5-dione]	490
CCOc1ccc2nc(NC(=O)[C@@H]3C4C=CC(C4)[C@@H]3C(=O)O)sc2c1 (stereo partly shown) [Example 7, 3-[(6-ethoxy-1,3-benzothiazol-2-yl)carbamoyl]bicyclo[2.2.1]hept-5-ene-2-carboxylic acid]	1000

same assay, conditions: read-out: EC50 H37Rv_DdnL49P_gfp

SMILES	EC50 [nM]
O=C1[C@@H]2[C@H](C(=O)N1c1nc3ccc(Oc4cc(C(F)(F)F)ccn4)cc3s1)[C@@H]1C=C[C@H]2C1 [Example 28, (1R,2S,6R,7S)-4-[6-[[4-(trifluoromethyl)-2-pyridyl]oxy]-1,3-benzothiazol-2-yl]-4-azatricyclo[5.2.1.02,6]dec-8-ene-3,5-dione]	< 1000
N#Cc1ccnc(Oc2ccc3nc(N4C(=O)[C@@H]5[C@H](C4=O)[C@@H]4C=C[C@H]5C4)sc3c2)c1 [Example 31, 2-[[2-[(1R,2S,6R,7S)-3,5-dioxo-4-azatricyclo[5.2.1.02,6]dec-8-en-4-yl]-1,3-benzothiazol-6-yl]oxy]pyridine-4-carbonitrile]	5000 to 10000
O=C(Nc1nc2ccc(Nc3ccnc(F)c3)cc2s1)[C@@H]1C2C=CC(C2)[C@@H]1C(=O)O (stereo partly shown) [Example 99, 3-[[6-[(2-fluoro-4-pyridyl)amino]-1,3-benzothiazol-2-yl]carbamoyl]bicyclo[2.2.1]hept-5-ene-2-carboxylic acid]	1000 to 5000
O=C(Nc1nc2ccc(C3CCCCC3)cc2s1)[C@@H]1C2C=CC(C2)[C@@H]1C(=O)O (stereo partly shown) [Example 52, 3-[(6-cyclohexyl-1,3-benzothiazol-2-yl)carbamoyl]bicyclo[2.2.1]hept-5-ene-2-carboxylic acid]	1000 to 5000
O=C1[C@@H]2[C@H](C(=O)N1c1nc3ccc(Oc4cccc(C(F)(F)F)n4)cc3s1)[C@@H]1C=C[C@H]2C1 [Example 34, (1R,2S,6R,7S)-4-[6-[[6-(trifluoromethyl)-2-pyridyl]oxy]-1,3-benzothiazol-2-yl]-4-azatricyclo[5.2.1.02,6]dec-8-ene-3,5-dione]	1000 to 5000
C#CCOc1ccc2nc(N3C(=O)[C@@H]4[C@H](C3=O)[C@@H]3C=C[C@H]4C3)sc2c1 [Example 73, (1R,2S,6R,7S)-4-(6-prop-2-ynoxy-1,3-benzothiazol-2-yl)-4-azatricyclo[5.2.1.02,6]dec-8-ene-3,5-dione]	< 1000
O=C1[C@@H]2C3C=CC(C3)[C@@H]2C(=O)N1c1nc2c(O)cccc2s1 [Example 74]	1000 to 5000
COc1cc2nc(NC(=O)[C@@H]3C4C=CC(C4)[C@@H]3C(=O)O)sc2cc1OC (stereo partly shown) [Example 9, 3-[(5,6-dimethoxy-1,3-benzothiazol-2-yl)carbamoyl]bicyclo[2.2.1]hept-5-ene-2-carboxylic acid]	5000 to 10000
O=C1C2C3C=CC(C3)C2C(=O)N1c1nc2ccc(-c3ccccc3C(F)(F)F)cc2s1 [Example 58, (1R,2S,6R,7S)-4-[6-[[2-(trifluoromethyl)phenyl]-1,3-benzothiazol-2-yl]-4-azatricyclo [5.2.1.02,6]dec-8-ene-3,5-dione]	10000 to 20000
O=C(Nc1nc2ccc(Oc3ccc(F)cc3)cc2s1)[C@@H]1C2C=CC(C2)[C@@H]1C(=O)O (stereo partly shown) [Example 21, 3-[[6-(4-fluorophenoxy)-1,3-benzothiazol-2-yl]carbamoyl]bicyclo[2.2.1]hept-5-ene-2-carboxylic acid]	< 1000
O=C(Nc1nc2ccc(-c3ccc(Cl)c(Cl)c3)cc2s1)[C@@H]1C2C=CC(C2)[C@@H]1C(=O)O (stereo partly shown) [Example 56, 3-[[6-(3,4-dichlorophenyl)-1,3-benzothiazol-2-yl]carbamoyl]bicycle [2.2.1]hept-5-ene-2-carboxylic acid]	1000 to 5000
O=C1[C@@H]2C3C=CC(C3)[C@@H]2C(=O)N1c1nc2ccc(Nc3ccc(C(F)(F)F)cn3)cc2s1 [Example 95]	< 1000
N#Cc1ccc2nc(NC(=O)[C@@H]3C4C=CC(C4)[C@@H]3C(=O)O)sc2c1 (stereo partly shown) [Example 40, 3-[(6-cyano-1,3-benzothiazol-2-yl)carbamoyl]bicyclo[2.2.1]hept-5-ene-2-carboxylic acid]	5000 to 10000
O=C(Nc1nc2ccc(Oc3ccc(Br)cn3)cc2s1)[C@@H]1C2C=CC(C2)[C@@H]1C(=O)O (stereo partly shown) [Example 37, 3-[[6-[(5-bromo-2-pyridyl)oxy]-1,3-benzothiazol-2-yl]carbamoyl]bicyclo [2.2.1]hept-5-ene-2-carboxylic acid]	1000 to 5000
O=C(Nc1nc2ccc(-c3ccccc3C(F)(F)F)cc2s1)[C@@H]1C2C=CC(C2)[C@@H]1C(=O)O (stereo partly shown) [Example 57, 3-[6-[[2-(trifluoromethyl)phenyl]-1,3-benzothiazol-2-yl]carbamoyl]bicyclo[2.2.1]hept-5-ene-2-carboxylic acid]	10000 to 20000
O=C(Nc1nc2ccc(Oc3ccncc3)cc2s1)[C@@H]1C2C=CC(C2)[C@@H]1C(=O)O (stereo partly shown) [Example 24, 3-[[6-(4-pyridyloxy)-1,3-benzothiazol-2-yl]carbamoyl]bicyclo[2.2.1]hept-5-ene-2-carboxylic acid]	5000 to 10000
O=C1[C@@H]2[C@H](C(=O)N1c1nc3ccc(Oc4ccc(C(F)(F)F)cn4)cc3s1)[C@@H]1C=C[C@H]2C1 [Example 36, (1R,2S,6R,7S)-4-[6-[[5-(trifluoromethyl)-2-pyridyl]oxy]-1,3-benzothiazol-2-yl]-4-azatricyclo[5.2.1.02,6]dec-8-ene-3,5-dione]	< 1000
O=C(Nc1nc2ccc(Cc3ccccc3)cc2s1)[C@@H]1C2C=CC(C2)[C@@H]1C(=O)O (stereo partly shown) [Example 20, 3-[(6-benzyl-1,3-benzothiazol-2-yl)carbamoyl]bicyclo[2.2.1]hept-5-ene-2-carboxylic acid]	< 1000
O=C1[C@@H]2[C@H](C(=O)N1c1nc3ccc(-c4ccc(C(F)(F)F)nc4)cc3s1)[C@@H]1C=C[C@H]2C1 [Example 67, (1R,2S,6R,7S)-4-[6-[6-(trifluoromethyl)-3-pyridyl]-1,3-benzothiazol-2-yl]-4-azatricyclo [5.2.1.02,6]dec-8-ene-3,5-dione]	1000 to 5000
O=C(Nc1nc2ccc(Oc3ccc(C(F)(F)F)cn3)cc2s1)[C@@H]1C2C=CC(C2)[C@@H]1C(=O)O (stereo partly shown) [Example 35, 3-[[6-[[5-(trifluoromethyl)-2-pyridyl]oxy]-1,3-benzothiazol-2-yl]carbamoyl]bicyclo[2.2.1]hept-5-ene-2-carboxylic acid]	1000 to 5000
O=C1[C@@H]2C3C=CC(C3)[C@@H]2C(=O)N1c1nc2ccc(Nc3cccc(F)n3)cc2s1 [Example 89, 4-[6-[(6-fluoro-2-pyridyl)amino]-1,3-benzothiazol-2-yl]-4-azatricyclo[5.2.1.02,6]dec-8-ene-3,5-dione]	1000 to 5000
CCOc1ccc2nc(NC(=O)[C@@H]3C4C=CC(C4)[C@@H]3C(=O)O)sc2c1 (stereo partly shown) [Example 7, 3-[(6-ethoxy-1,3-benzothiazol-2-yl)carbamoyl]bicyclo[2.2.1]hept-5-ene-2-carboxylic acid]	< 1000
COc1cc(Nc2ccc3nc(N4C(=O)[C@@H]5C6C=CC(C6)[C@@H]5C4=O)sc3c2)ccn1 [Example 92, 4-[6-[(2-methoxy-4-pyridyl)amino]-1,3-benzothiazol-2-yl]-4-azatricyclo[5.2.1.02,6]dec-8-ene-3,5-dione]	1000 to 5000
Cc1ccc2nc(NC(=O)[C@@H]3C4CCC(C4)[C@@H]3C(=O)O)sc2c1 (stereo in doubt) [Example 3, 3-[(6-methyl-1,3-benzothiazol-2-yl)carbamoyl]norbornane-2-carboxylic acid]	1000 to 5000
O=C(Nc1nc2ccc(-c3ccc4ncccc4c3)cc2s1)[C@@H]1C2C=CC(C2)[C@@H]1C(=O)O (stereo partly shown) [Example 81, 3-[[6-(6-quinolyl)-1,3-benzothiazol-2-yl]carbamoyl]bicyclo[2.2.1]hept-5-ene-2-carboxylic acid]	1000 to 5000
